Measured values: patent publication US8729087B2, “Compositions and methods for inhibition of the JAK pathway” (Rigel Pharmaceuticals, Inc., priority 2006, dated 2014)
Read-outs that look alike come from different tables or passages of the source.

Legend:
[1] = tested on: Ramos B-cell line stimulated with IL-4; assay: Assay for Ramos B-Cell Line Stimulated with IL-4 (CD23 upregulation, FACS); type: cell-based, human; settings: IL-4 50 units/mL, 20-24 hours, anti-CD23-PE staining, FACS, read-out: Example 2 (IC50, Ramos B-cell line stimulated with IL-4)
Excerpt: One means of assaying for such inhibition is detection of the effect of the 2,4-pyrimidinediamine compounds on the upregulation of downstream gene products. In the Ramos/IL4 assay, B-cells are stimulated with the cytokine Interleukin-4 (IL-4) leading to the activation of the JAK/Stat pathway through phosphorylation of the JAK family kinases, JAK1 and JAK3, which in turn phosphorylate and activate the transcription factor Stat-6. […] To study the effect of inhibitors (e.g., the 2,4-substituted pyrimindinediamine compounds described herein) on the JAK1 and JAK3 kinases, human Ramos B cells are stimulated with human IL-4. Twenty to 24 hours post stimulation, cells are stained for upregulation of CD23 and analyzed using flow cytometry (FACS). […] An exemplary assay of this type is described in greater detail in Example 2.
B-cells stimulated with cytokine Interleukin-4 (IL-4) activate the JAK/Stat pathway through phosphorylation of the JAK family kinases, JAK-1 and JAK-3, which in turn phosphorylate and activate the transcription factor Stat-6. […] To study the effect of inhibitors on the JAK family kinases, human Ramos B cells are stimulated with human IL-4.
The Ramos B-cell line was acquired from ATCC (ATCC Catalog No. CRL-1596). The cells were cultured in RPMI 1640 (Cellgro, MediaTech, Inc., Herndon, Va., Cat No. 10-040-CM) with 10% fetal bovine serum (FBS), heat inactivated (JRH Biosciences, Inc, Lenexa, Kans., Cat No. 12106-500M) according to ATCC propagation protocol. Cells were maintained at a density of 3.5×10^5. The day before the experiment, Ramos B-cells were diluted to 3.5×10^5 cells/mL to ensure that they were in a logarithmic growth phase.
Cells were spun down and suspended in RPMI with 5% serum. 5×10^4 cells were used per point in a 96-well tissue culture plate. Cells were pre-incubated with compound or DMSO (Sigma-Aldrich, St. Louis, Mo., Cat No. D2650) vehicle control for 1 hour in a 37° C. incubator.
Cells were then stimulated with IL-4 (Peprotech Inc., Rocky Hill, N.J., Cat No. 200-04) for a final concentration of 50 units/mL for 20-24 hours. Cells were then spun down and stained with anti-CD23-PE (BD Pharmingen, San Diego, Calif., Cat No. 555711) and analyzed by FACS. Detection was performed using a BD LSR I System Flow Cytometer, purchased from Becton Dickinson Biosciences of San Jose, Calif.

Primary human T-cells = assay: Primary Human T-Cell Proliferation Assay Stimulated with IL-2 (CellTiter-Glo); type: cell-based; settings: IL-2, 72 hours, ATP quantitation (CellTiter-Glo), read-out: Example 3 (IC50, primary human T-cell proliferation stimulated with IL-2)
Excerpt: The activity of the active compounds of the invention may further be characterized by assaying the effect of the 2,4-pyrimidinediamine compounds described herein on the proliferative response of primary human T-cells. In this assay, primary human T-cells derived from peripheral blood and pre-activated through stimulation of the T-cell receptor and CD28, proliferate in culture in response to the cytokine Interleukin-2 (IL-2). This proliferative response is dependent on the activation of JAK1 and JAK3 tyrosine kinases, which phosphorylate and activate the transcription factor Stat-5. The primary human T-cells are incubated with the 2,4-pyrimidinediamine compounds in the presence of IL-2 for 72 hours and at the assay endpoint intracellular ATP concentrations are measured to assess cell viability. A reduction in cell proliferation compared to control conditions is indicative of inhibition of the JAK kinase pathway. An exemplary assay of this type is described in greater detail in Example 3.
Primary human T-cells derived from peripheral blood and pre-activated through stimulation of the T-cell receptor and CD28, proliferate in vitro in response to the cytokine Interleukin-2 (IL-2). This proliferative response is dependent on the activation of JAK-1 and JAK-3 tyrosine kinases, which phosphorylate and activate the transcription factor Stat-5.
Human primary T cells were prepared as follows. Whole blood was obtained from a healthy volunteer, mixed 1:1 with PBS, layered on to Ficoll Hypaque (Amersham Pharmacia Biotech, Piscataway, N.J., Catalog #17-1440-03) in 2:1 blood/PBS:ficoll ratio and centrifuged for 30 min at 4° C. at 1750 rpm. The lymphocytes at the serum: ficoll interface were recovered and washed twice with 5 volumes of PBS. The cells were resuspended in Yssel's medium (Gemini Bio-products, Woodland, Calif., Catalog #400-103) containing 40 U/mL recombinant IL2 (R and D Systems, Minneapolis, Minn., Catalog #202-IL (20 μg)) and seeded into a flask pre-coated with 1 μg/mL anti-CD3 (BD Pharmingen, San Diego, Calif., Catalog #555336) and […] (Immunotech, Beckman Coulter of Brea Calif., Catalog #IM1376). The primary T-cells were stimulated for 3-4 days, then transferred to a fresh flask and maintained in RPMI with 10% FBS and 40 U/mL IL-2.
Primary T-cells were washed twice with PBS to remove the IL-2 and resuspended in Yssel's medium at 2×10^6 cells/mL. 50 μL of cell suspension containing 80 U/mL IL-2 was added to each well of a flat bottom 96 well black plate. For the unstimulated control, IL-2 was omitted from the last column on the plate. Compounds were serially diluted in dimethyl sulfoxide (DMSO, 99.7% pure, cell culture tested, Sigma-Aldrich, St. Louis, Mo., Catalog No. D2650) from 5 mM in 3-fold dilutions, and then diluted 1:250 in Yssel's medium. 50 μL of 2× compound was added per well in duplicate and the cells were allowed to proliferate for 72 hours at 37° C.
Proliferation was measured using CellTiter-Glo® Luminescent Cell Viability Assay (Promega), which determines the number of viable cells in culture based on quantitation of the ATP present, as an indicator of metabolically active cells. The substrate was thawed and allowed to come to room temperature. After mixing the Cell Titer-Glo reagent and diluent together, 100 μL was added to each well. The plates were mixed on an orbital shaker for two minutes to induce lysis and incubated at room temperature for an additional ten minutes to allow the signal to equilibrate. Detection was performed using a Wallac Victor2 1420 multilabel counter purchased from Perkin Elmer, Shelton, Conn.

Cc1cnc(Nc2cccc(S(N)(=O)=O)c2)nc1Nc1ccc2c(c1)C(NS(C)(=O)=O)CC2 (racemic) [VI-1, (+/−)-N2-(3-Aminosulfonylphenyl)-5-methyl-N4-[1-(methylsulfonyl)aminoindan-6-yl]-2,4-pyrimidinediamine]
IC50 ([1]; Homo sapiens, Ramos): 312 nM

C#CCOc1ccc(Nc2nc(Nc3cccc(CS(N)(=O)=O)c3)ncc2F)cc1 [Compound I-3, N2-(3-Aminosulfonylmethylphenyl)-5-fluoro-N4-[4-(prop-2-ynyloxy)phenyl]-2,4-pyrimidinediamine]
IC50 ([1]; Homo sapiens, Ramos): 93.1 nM
IC50 (Primary human T-cells; Homo sapiens, T-cell, 72 h): 782 nM

CCCN(Cc1ccc(Nc2nc(Nc3ccc(CS(=O)(=O)NC)cc3)ncc2F)cc1)S(=O)(=O)CC [Compound I-9, N4-[4-(N-ethylsulfonyl-N-propyl)aminomethyl]phenyl-5-fluoro-N2-(4-methylaminosulfonylmethyl)phenyl-2,4-pyrimidinediamine]
IC50 [1]: 224 nM
IC50 (Primary human T-cells): 1380 nM

CCS(=O)(=O)NCc1cccc(Nc2nc(Nc3ccc(CS(=O)(=O)NC)cc3)ncc2F)c1 [Compound I-12, N4-(3-ethylsulfonylaminomethyl)phenyl-5-fluoro-N2-(4-methylaminosulfonylmethyl)phenyl-2,4-pyrimidinediamine]
IC50 [1]: 314 nM
IC50 (Primary human T-cells): 1380 nM

C#CCOC(=O)NCc1ccc(Nc2nc(Nc3cccc(CS(N)(=O)=O)c3)ncc2F)cc1 [Compound I-14, N2-(3-Aminosulfonylmethylphenyl)-5-fluoro-N4-{4-[(prop-2-ynyloxy)carbonylaminomethyl]phenyl}-2,4-pyrimidinediamine]
IC50 ([1]; Homo sapiens, Ramos): 354 nM

CCS(=O)(=O)NCCc1ccc(Nc2nc(Nc3ccc(CS(=O)(=O)NC)cc3)ncc2F)cc1 [Compound I-15, N4-[4-(2-ethylsulfonylamino)ethyl]phenyl-5-fluoro-N2-(4-methylaminosulfonylmethyl)phenyl-2,4-pyrimidinediamine]
IC50 [1]: 378 nM

Cn1nccc1NC(=O)Cc1cccc(Nc2nc(Nc3cccc(CS(N)(=O)=O)c3)ncc2F)c1 [Compound I-20, N2-[3-(Aminosulfonylmethylene)phenyl]-5-fluoro-N4-[(1-methylpyrazolyl-5-aminocarbonylmethylene)phenyl]-5-fluoro-2,4-pyrimidinediamine]
IC50 [1]: 1140 nM

CN1CCC(NS(=O)(=O)C=C2C=CC=C(Nc3nc(NC4=CC=CC(=CS(N)(=O)=O)C4)ncc3F)C2)CC1 [Compound I-21, N2-[3-(Aminosulfonylmethylene)phenyl]-5-fluoro-N4-[3-(1-methylpiperidin-4-ylaminosulfonylmethylene)phenyl]-2,4-pyrimidinediamine]
IC50 ([1]; Homo sapiens, Ramos): 2550 nM

NS(=O)(=O)c1ccc(Nc2ncc(F)c(Nc3cc4c(cc3F)CS(=O)(=O)N4)n2)cc1 [Compound V-1, N2-(4-aminosulfonyl)phenyl-5-fluoro-N4-(2,2-dioxo-5-fluoro-1,3-dihydrobenzo[c]isothiazol-6-yl)-2,4-pyrimidinediamine]
IC50 ([1]; Homo sapiens, Ramos): 12400 nM

NS(=O)(=O)c1cccc(Nc2ncc(F)c(Nc3cc4c(cc3F)CS(=O)(=O)N4)n2)c1 [Compound V-2, N2-(3-aminosulfonyl)phenyl-5-fluoro-N4-(2,2-dioxo-5-fluoro-1,3-dihydrobenzo[c]isothiazol-6-yl)-2,4-pyrimidinediamine]
IC50 ([1]; Homo sapiens, Ramos): 14800 nM
IC50 (Primary human T-cells; Homo sapiens, T-cell, 72 h): 24200 nM

Cc1ccc(Nc2ncc(F)c(Nc3cc4c(cc3F)CS(=O)(=O)N4)n2)cc1S(N)(=O)=O [Compound V-3, N2-(3-aminosulfonyl-4-methyl)phenyl-5-fluoro-N4-(2,2-dioxo-5-fluoro-1,3-dihydrobenzo[c]isothiazol-6-yl)-2,4-pyrimidinediamine]
IC50 ([1]; Homo sapiens, Ramos): 12900 nM

CC1(C)Oc2ccc(Nc3nc(Nc4ccc5c(c4)NS(=O)(=O)CO5)ncc3F)nc2NC1=O [Compound V-4, N4-[2,2-dimethyl-3-oxo-4H-pyrid[1,4]oxazin-7-yl]-N2-[3,3-dioxo-1H-benzo[e][1,3,4]oxathiazin-7-yl]-5-fluoro-2,4-pyrimidinediamine]
IC50 ([1]; Homo sapiens, Ramos): 794 nM
IC50 (Primary human T-cells; Homo sapiens, T-cell, 72 h): 1720 nM

Cc1cnc(Nc2cccc(CNS(=O)(=O)C3CC3)c2)nc1Nc1ccc2c(n1)CCC(=O)O2 [Compound V-5]
IC50 ([1]; Homo sapiens, Ramos): 391 nM

Cc1cnc(Nc2ccc(CNS(=O)(=O)c3cccnc3)cc2)nc1Nc1ccc(CNS(=O)(=O)c2cccnc2)cc1 [II-3, N2,N4-bis[4-(pyrid-3-yl)sulfonylaminomethyl]phenyl-5-methyl-2,4-pyrimidinediamine]
IC50 [1]: 322 nM

O=S(=O)(NCc1ccc(Nc2ncc(C(F)(F)F)c(Nc3ccc(CNS(=O)(=O)C4CC4)cc3)n2)cc1)C1CC1 [II-4, N2,N4-bis(4-cyclopropylsulfonylaminomethyl)phenyl-5-trifluoromethyl-2,4-pyrimidinediamine]
IC50 [1]: 136 nM
IC50 (Primary human T-cells): 423 nM

CC1(C)Oc2ccc(Nc3nc(Nc4ccc5c(c4)CN(S(N)(=O)=O)CC5)ncc3F)nc2NC1=O [III-3, N2-(2-Aminosulfonyl-1,2,3,4-tetrahydroisoquinolin-7-yl)-N4-(2,2-dimethyl-3-oxo-4H-5-pyrid[1,4]oxazin-6-yl)-5-fluoro-2,4-pyrimidinediamine]
IC50 [1]: 72.9 nM
IC50 (Primary human T-cells): 269 nM

C#CCn1ccc2cc(Nc3nc(Nc4cccc(CS(N)(=O)=O)c4)ncc3F)ccc21 [IV-3, N2-(3-Aminosulfonylmethylphenyl)-5-fluoro-N4-[1-(propyn-3-yl)indol-5-yl]-2,4-pyrimidinediamine]
IC50 ([1]; Homo sapiens, Ramos): 214 nM
IC50 (Primary human T-cells; Homo sapiens, T-cell, 72 h): 1980 nM

N2-(3-Aminosulfonylmethylenephenyl)-5-fluoro-N4-[2-(2-N-morpholinoethylaminoacrbonyl)benzofuran-5-yl]-2,4-pyrimidinediamine [IV-5]
IC50 [1]: 3040 nM
